According to patent US20260198493A1, “HYDRAZIDE COMPOUND AND AGRICULTURAL/HORTICULTURAL FUNGICIDE” (Nippon Soda Co., Ltd., priority 2022, published 2026):

Columns and labels:
[1] = system: Botrytis cinerea; experiment: Control test of cucumber gray mold (sprayed young cucumber seedlings); format: in vivo; conditions: 96 h, four days after inoculation; for pest or weed control at 25 ppm: 25 ppm by mass spray; for pest or weed control at 125 ppm: 125 ppm by mass spray
Experimental: Then, the drug liquid was sprayed onto young cucumber seedlings cultivated in a nursery pot (variety “Jihai”-based, cotyledon stage), and then air-dried. […] They were left still in a moist room at 20° C. Four days after inoculation, leaves of the young cucumber seedlings were visually observed, and the control value was calculated from the lesion area ratio in accordance with the following equation. [formula]

[2] = system: Colletotrichum acutatum; experiment: Fungicidal effect test against fungi causing apple anthracnose; conditions: 96 h, read-out: growth inhibition ratio
[3] = system: Botrytis cinerea; format: cell-based; conditions: 120 h, 25 ppm by volume, Vogel medium, 20° C., five days, dark, read-out: growth inhibition ratio
[4] = system: Venturia inaequalis; experiment: Control test of apple scab disease (sprayed young apple seedlings); format: in vivo; conditions: 125 ppm by mass spray, 12 to 14 days after inoculation
Experimental: [formula] […] Then, the drug liquid was sprayed onto young apple seedlings cultivated in a nursery pot (variety “Orin”, three-to four-leaf stage), and then air-dried. Thereafter, conidiospores of fungi causing apple scab disease (Venturia inaequalis) were inoculated thereon (treated area). As a control, the conidiospores were inoculated in a similar manner to the above on young apple seedlings unsprayed with the drug liquid (untreated area). They were left still at 20° C. in a moist room with light and dark cycles repeated every 12 hours. 12 Days to 14 days after inoculation, leaves of young apple seedlings were visually observed, and the control value was calculated from the lesion area ratio in accordance with the equation used in the control test of cucumber gray mold.

[5] = system: Glomerella cingulata; experiment: Fungicidal effect test against fungi causing grape ripe rot disease; conditions: Colletotrichum gloeosporioides, 72 h, read-out: growth inhibition ratio
[6] = system: Erysiphe graminis f.sp.tritici; experiment: Control test of wheat powdery mildew disease (sprayed young wheat seedlings); format: in vivo; conditions: Blumeria graminis, 144 h, 125 ppm by mass spray, six days after inoculation
Description: [formula] […] Then, the drug liquid was sprayed onto young wheat seedlings cultivated in a nursery pot (variety “Chihoku”, one-to two-leaf stage), and then air-dried. Thereafter, conidiospores of fungi causing wheat powdery mildew disease (Erysiphe graminis f.sp.tritici) were sprinkled on the young wheat seedlings to inoculate them (treated area). As a control, the conidiospores of fungi causing wheat powdery mildew disease (Erysiphe graminis f.sp.tritici) were sprinkled on young wheat seedlings unsprayed with the drug liquid (untreated area). They were left still in a greenhouse at 20° C. Six days after inoculation, leaves of young wheat seedlings were visually observed, and the lesion area ratio was determined to calculate the control value in a similar manner to the previous test.

CC(=O)N(Cc1ccc(C)cc1C)NC(=O)c1cc(C)nnc1Oc1cccc(C2CC2)c1F [b-5, N′-acetyl-3-(3-cyclopropyl-2-fluorophenoxy)-N′-(2,4-dimethylbenzyl)-6-methylpyridazine-4-carbohydrazide]
≥ 75%: pest or weed control at 25 ppm [1] | pest or weed control at 125 ppm [1] | inhibition of growth at 25 ppm [2] | inhibition of growth at 25 ppm [3] | pest or weed control at 125 ppm [4] | inhibition of growth at 25 ppm [5] | pest or weed control at 125 ppm [6]

CC(=O)N(Cc1ccc(C)cc1C)NC(=O)c1cc(C)ncc1Oc1cccc(C2CC2)c1F [b-9, N′-acetyl-5-(3-cyclopropyl-2-fluorophenoxy)-N′-(2,4-dimethylbenzyl)-2-methylisonicotinohydrazide]
≥ 75%: pest or weed control at 25 ppm [1] | pest or weed control at 125 ppm [1] | inhibition of growth at 25 ppm [2] | inhibition of growth at 25 ppm [3] | pest or weed control at 125 ppm [4] | inhibition of growth at 25 ppm [5] | pest or weed control at 125 ppm [6]

Cc1ccc(CN(NC(=O)c2cc(C)nnc2Oc2cccc(C3CC3)c2F)C(=O)C(C)C)c(C)c1 [b-18]
≥ 75%: pest or weed control at 125 ppm [1] | inhibition of growth at 25 ppm [2] | inhibition of growth at 25 ppm [3] | pest or weed control at 125 ppm [4] | inhibition of growth at 25 ppm [5] | pest or weed control at 125 ppm [6]

CCCC(=O)N(Cc1ccc(C)cc1C)NC(=O)c1cc(C)nnc1Oc1cccc(C2CC2)c1F [b-20]
≥ 75%: pest or weed control at 125 ppm [1] | inhibition of growth at 25 ppm [2] | inhibition of growth at 25 ppm [3] | pest or weed control at 125 ppm [4] | inhibition of growth at 25 ppm [5] | pest or weed control at 125 ppm [6]

CCOC(=O)N(Cc1ccc(C)cc1C)NC(=O)c1cc(C)nnc1Oc1cccc(C2CC2)c1F [b-21]
≥ 75%: pest or weed control at 25 ppm [1] | pest or weed control at 125 ppm [1] | inhibition of growth at 25 ppm [2] | inhibition of growth at 25 ppm [3] | pest or weed control at 125 ppm [4] | inhibition of growth at 25 ppm [5] | pest or weed control at 125 ppm [6]

Cc1ccc(CN(NC(=O)c2cc(C)nnc2Oc2cccc(C3CC3)c2F)C(=O)C2CC2)c(C)c1 [b-25]
≥ 75%: pest or weed control at 25 ppm [1] | pest or weed control at 125 ppm [1] | inhibition of growth at 25 ppm [2] | inhibition of growth at 25 ppm [3] | pest or weed control at 125 ppm [4] | inhibition of growth at 25 ppm [5] | pest or weed control at 125 ppm [6]

COC(=O)N(Cc1ccc(C)c(C)c1)NC(=O)c1cc(C)nnc1Oc1cccc(C2CC2)c1F [b-29]
≥ 75%: pest or weed control at 25 ppm [1] | pest or weed control at 125 ppm [1] | inhibition of growth at 25 ppm [2] | inhibition of growth at 25 ppm [3] | pest or weed control at 125 ppm [4] | inhibition of growth at 25 ppm [5] | pest or weed control at 125 ppm [6]

COCOc1ccc(CN(NC(=O)c2cc(C)nnc2Oc2cccc(C3CC3)c2F)C(=O)OC)c(C)c1 [b-30]
≥ 75%: pest or weed control at 25 ppm [1] | pest or weed control at 125 ppm [1] | inhibition of growth at 25 ppm [2] | inhibition of growth at 25 ppm [3] | pest or weed control at 125 ppm [4] | inhibition of growth at 25 ppm [5] | pest or weed control at 125 ppm [6]

COC(=O)N(Cc1ccc(OC)cc1C)NC(=O)c1cc(C)nnc1Oc1cccc(C2CC2)c1F [b-44]
≥ 75%: pest or weed control at 25 ppm [1] | pest or weed control at 125 ppm [1] | inhibition of growth at 25 ppm [2] | inhibition of growth at 25 ppm [3] | pest or weed control at 125 ppm [4] | inhibition of growth at 25 ppm [5] | pest or weed control at 125 ppm [6]

COC(=O)N(CCc1ccc(Cl)cc1Cl)NC(=O)c1cc(C)nnc1Oc1cccc(C2CC2)c1F [b-65]
≥ 75%: inhibition of growth at 25 ppm [2] | pest or weed control at 125 ppm [4] | inhibition of growth at 25 ppm [5] | pest or weed control at 125 ppm [6]

COC(=O)N(Cc1ccc(C)cc1C)NC(=O)c1cc(Cl)nnc1Oc1ccc2c(c1)CCC2 [b-79]
≥ 75%: pest or weed control at 125 ppm [1] | inhibition of growth at 25 ppm [2] | inhibition of growth at 25 ppm [3] | pest or weed control at 125 ppm [4] | inhibition of growth at 25 ppm [5]

COC(=O)N(Cc1ccc(OC)cc1OC)NC(=O)c1cc(C)ncc1Oc1cccc(C2CC2)c1F [b-85]
≥ 75%: pest or weed control at 25 ppm [1] | pest or weed control at 125 ppm [1] | inhibition of growth at 25 ppm [3] | pest or weed control at 125 ppm [4] | inhibition of growth at 25 ppm [5] | pest or weed control at 125 ppm [6]

COC(=O)N(Cc1ccc(OC)cc1OC)NC(=O)c1nc(C)ncc1Oc1cccc(C2CC2)c1F [b-86]
≥ 75%: pest or weed control at 25 ppm [1] | pest or weed control at 125 ppm [1] | inhibition of growth at 25 ppm [3] | pest or weed control at 125 ppm [4] | inhibition of growth at 25 ppm [5] | pest or weed control at 125 ppm [6]

COC(=O)N(Cc1ccc(OC)cc1)NC(=O)c1cc(C)nnc1Oc1cccc(C2CC2)c1F [b-100]
≥ 75%: inhibition of growth at 25 ppm [2] | inhibition of growth at 25 ppm [3] | pest or weed control at 125 ppm [4] | inhibition of growth at 25 ppm [5] | pest or weed control at 125 ppm [6]

COC(=O)N(Cc1ccccc1)NC(=O)c1cc(C)nnc1Oc1cccc(C2CC2)c1F [b-102]
≥ 75%: inhibition of growth at 25 ppm [2] | inhibition of growth at 25 ppm [3] | pest or weed control at 125 ppm [4] | inhibition of growth at 25 ppm [5] | pest or weed control at 125 ppm [6]

COC(=O)N(Cc1ccc(OC)cc1C)NC(=O)c1cc(C)ncc1Oc1cccc(C2CC2)c1F [b-104]
≥ 75%: pest or weed control at 25 ppm [1] | pest or weed control at 125 ppm [1] | inhibition of growth at 25 ppm [2] | inhibition of growth at 25 ppm [3] | pest or weed control at 125 ppm [4] | pest or weed control at 125 ppm [6]

COC(=O)N(Cc1ccc2c(c1)OCO2)NC(=O)c1cc(C)nnc1Oc1cccc(C2CC2)c1F [b-110]
≥ 75%: inhibition of growth at 25 ppm [2] | inhibition of growth at 25 ppm [3] | pest or weed control at 125 ppm [4] | inhibition of growth at 25 ppm [5] | pest or weed control at 125 ppm [6]

COC(=O)N(Cc1ccc(C)cc1C)NC(=O)c1cc(C)nnc1Oc1cccc(OC)c1 [b-123]
≥ 75%: inhibition of growth at 25 ppm [2] | inhibition of growth at 25 ppm [3] | pest or weed control at 125 ppm [4] | inhibition of growth at 25 ppm [5] | pest or weed control at 125 ppm [6]

COC(=O)N(Cc1ccc(Oc2ccccc2)cc1)NC(=O)c1cc(C)nnc1Oc1cccc(C2CC2)c1F [b-165]
≥ 75%: inhibition of growth at 25 ppm [2] | inhibition of growth at 25 ppm [3] | pest or weed control at 125 ppm [4] | inhibition of growth at 25 ppm [5]

COC(=O)N(Cc1ccc(-n2cccn2)cc1)NC(=O)c1cc(C)nnc1Oc1cccc(C2CC2)c1F [b-172]
≥ 75%: inhibition of growth at 25 ppm [2] | inhibition of growth at 25 ppm [3] | pest or weed control at 125 ppm [4] | inhibition of growth at 25 ppm [5]

COC(=O)N(Cc1ccc(C)cc1C)NC(=O)c1cc(C)nnc1Oc1cccc(F)c1Cl [b-180]
≥ 75%: inhibition of growth at 25 ppm [3] | pest or weed control at 125 ppm [4] | pest or weed control at 125 ppm [6]

COC(=O)N(Cc1ccc(C)cc1C)NC(=O)c1cc(-n2cccn2)ncc1Oc1cccc(C2CC2)c1F [b-186]
≥ 75%: pest or weed control at 25 ppm [1] | pest or weed control at 125 ppm [1] | inhibition of growth at 25 ppm [2] | inhibition of growth at 25 ppm [3] | pest or weed control at 125 ppm [4] | inhibition of growth at 25 ppm [5]
